The record followed here is patent US10106532B2, “Inhibitors of beta-hydroxylase for treatment of cancer” (MIDWESTERN UNIVERSITY, priority 2012, dated 2018).

Test [1] has as its target T1, ASPH (Homo sapiens, UniProt Q12797).
T1 sequence (Q12797 1-758): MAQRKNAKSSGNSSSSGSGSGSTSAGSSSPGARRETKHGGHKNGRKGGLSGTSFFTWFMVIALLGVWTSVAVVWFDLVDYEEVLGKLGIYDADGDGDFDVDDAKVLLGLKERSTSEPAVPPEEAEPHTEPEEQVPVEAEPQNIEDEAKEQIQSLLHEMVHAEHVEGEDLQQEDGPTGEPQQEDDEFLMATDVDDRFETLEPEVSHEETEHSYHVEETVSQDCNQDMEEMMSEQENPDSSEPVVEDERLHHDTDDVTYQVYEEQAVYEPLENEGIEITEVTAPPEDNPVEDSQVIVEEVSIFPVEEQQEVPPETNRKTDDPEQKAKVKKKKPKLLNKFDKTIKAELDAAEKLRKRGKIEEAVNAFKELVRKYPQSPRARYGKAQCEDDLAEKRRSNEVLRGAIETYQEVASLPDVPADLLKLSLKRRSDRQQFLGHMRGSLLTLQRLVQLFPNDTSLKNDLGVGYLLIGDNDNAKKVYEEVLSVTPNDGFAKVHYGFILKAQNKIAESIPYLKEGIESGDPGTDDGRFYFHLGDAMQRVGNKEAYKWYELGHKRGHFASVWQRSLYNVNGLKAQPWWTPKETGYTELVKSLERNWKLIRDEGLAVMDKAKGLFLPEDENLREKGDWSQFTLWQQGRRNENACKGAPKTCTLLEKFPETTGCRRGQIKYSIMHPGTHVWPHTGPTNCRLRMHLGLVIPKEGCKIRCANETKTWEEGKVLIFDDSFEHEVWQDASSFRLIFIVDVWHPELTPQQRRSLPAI
Nature of the test: high throughput 14CO2 capture enzymatic assay for ASPH β-hydroxylase activity (ASPH mAb capture from lysates of treated FOCUS cells). It is filed as biochemical. The arrangement: endogenous in cells; host or cells: FOCUS cells (human hepatocellular carcinoma line). As to the method:
In yet another aspect, the disclosure provides a method determining ASPH activity by contacting an EGF-like domain peptide with a detectably-labeled α-ketoglutarate and ASPH enzyme and measuring β-hydroxylase activity. In one embodiment, said α-ketoglutarate is ^14C-labelled, and wherein β-hydroxylase activity is measured by detecting liberated ^14CO2. In one embodiment, said liberated ^14CO2 is captured on a filter and radioactivity quantified. […] In one embodiment, said EGF-like domain comprises the amino acid sequence of […] (SEQ ID NO:1). In one embodiment, said EGF-like domain peptide comprises the consensus sequence of CDXXXCXXKXGNGXCDXXCNNAACXXDGXDC (SEQ ID NO: 2).
FIG. 3A is a diagram of the biochemical reaction catalyzed by ASPH derived from PC cell lysates. FIG. 3B is a cartoon illustrating the read-out to quantify ASPH activity in PC cells and tumors. FIG. 3C is an image of membrane was obtained by a phosphor-imager after a 16 hour exposure of the trapping filter to a phospho-screen. FIG. 3D is a bar graph showing intensities were calculated by Image J software and compared to a DMSO control. Vertical bars represent standard deviation. These figures show methods of measurement and data relating to ASPH catalytic activity.
EGF and EGF-like domains are well known in the art and generally include six cysteine residues which have been shown (in EGF) to be involved in disulfide bonds. The main structure is a two-stranded beta-sheet followed by a loop to a C-terminal short two-stranded sheet. Subdomains between the conserved cysteines vary in length. Examples include those described in Davis, C G, 1990, New Biol. 2(5):410-9; Blomquist et al., 1984, Proc Natl Acad Sci USA. 81(23):7363-7; Hommel et al., […], J Mol Biol. 227(1):271-82; Doolittle et al., 1984, Nature. 307(5951):558-60; Appella et al., 1988, FEBS Lett. 231(1):1-4; Sorkin A., 2001, Biochem Soc Trans. August; 29(Pt 4):480-4; each of which is hereby incorporated by reference). FIGS. 3A-C represents the strategy for development and characterization of the performance of an assay to measure ASPH enzymatic activity. FIG. 3A describes the biochemical reaction catalyzed by ASPH. FIG. 3B depicts the read-out of the assay. Protein lysates were extracted from FOCUS cells (high level of ASPH cell surface expression) treated with 1-10 μM of each parent compound for 24 hours. The lysates were added into 96 well-plates coated with ASPH monoclonal antibodies (mAbs) to add an antigen specific (ASPH) capture step to the assay design. After incubation and washing, only ASPH is captured on each well. The reaction is carried out with 60 μM of an EGF domain containing 39AA peptide, 100 μM FeCl2 and 40 μM ^14C labeled α-ketoglutarate were added into each well. The ^14CO2 was captured on a glass fiber membrane soaked in Ca(OH)2. […] The compound was further characterized for clinical use as an anti-tumor agent for PC and HCC and other ASPH-expressing tumors.

Test [2] relates to NIH-3T3 cells. Nature of the test: MTT assay (cell proliferation, metabolic activity). The format is cell-based, mouse. As to the method: A MTT assay was performed to evaluate the effect of MO-1-1100 on cell proliferation and viability. MTT is reduced to purple formazan in living cells. FOCUS cells were used as a high ASPH expressing human HCC cell line. […] The MTT assay measures cellular metabolic activity via NAD(P)H-dependent cellular oxidoreductase enzymes. […] In order to evaluate the effect of long-term exposure of MO-1-1100, the colony formation assay (an assay of malignant potential and phenotype) in which cells were treated with inhibitor for 3 weeks was performed.
In general terms: Tetrazolium dyes change colour on reduction, which living cells bring about.

In test [3] the test system is HPAFH AsPC-1 human PC cell line. The test is described as follows: subcutaneous pancreatic cancer tumor growth in nude mice. The format is in vivo. As to the method: FIG. 4A is a line graph showing tumor volume, and FIG. 4B is a bar graph showing tomor weight. […] There were 15 nude mice in each group. i.p. injection (20 mg/kg/mouse). Vertical bars; standard error.
The HPAFH AsPC-1 human PC cell line which expresses a high level of ASPH was implanted (5×10^6 cells s.c.) into the back of nude mice. Tumors were allowed to grow to approximately 100 mm^3 after one week, and MO-1-1100 was then administered intraperitoneal (i.p.) at a concentration of 50 mg/kg. The treatment regimen as shown in FIGS. 4A-B included i.p. injections on a daily basis for five days followed by every other day until the experiment was terminated due to the large size of tumors observed in the control group that received a DMSO vehicle injection. […] There were 15 nude mice in each group (control vs. treatment).

“Also recorded” adds a separate entry of the source.

Turning to `NC1=C(OS(=O)(=O)Cc2ccccc2)C(=O)C(c2ccc(Cl)cc2)O1` (racemic) [MO-1-1100], the “identified as hits (screening for inhibition of β-hydroxylase activity)” value in test [1] was “identified as hits”. Besides, the β-hydroxylase activity entry in test [1] (1 μM) was “substantially inhibits”. Also, the “ASPH enzymatic inhibitory activity (β-hydroxylase)” value in test [1] (concentration not given) is “inhibit”. For the same compound, the “specificity for the β-hydroxylase activity of ASPH” value in test [2] (FOCUS (express ASPH) versus NIH-3T3 (do not express ASPH)) is given as “highly specific; also recorded: more highly specific”. Besides, the “OD value of MTT” value in test [2] (NIH-3T3 cells not expressing ASPH) is “no effect; also recorded: resistant”. Moreover, the “HPAFH tumor formation, growth rate” value in test [3] (i.p. 50 mg/kg, daily for five days followed by every other day) was “substantial inhibition”. The “PC tumor growth (tumor volume, tumor weight)” value in test [3] (i.p. injection (20 mg/kg/mouse), FIG. 4 legend) was “anti-tumor effect”.
